Data: patent US20260001928A1 (CORTERIA PHARMACEUTICALS, priority 2022, published 2026)
*1 amine or outer side, *2 acyl side, *3 side chain or, on linkers, in order; H or OH if unused. Where a SMILES comes first, the peptide text is derived from it. Side-chain parts run from the residue outwards. [ ]: non-standard residue; d: D form. The star is where a group is joined. C20 diacid = O=C(O)CCCCCCCCCCCCCCCCCCC(=O)*; C18 diacid = O=C(O)CCCCCCCCCCCCCCCCC(=O)*; γGlu = O=C(O)[C@H](CCC(=O)[*:2])N[*:1]; NMeI = CC[C@H](C)[C@H](NC)C(=O)O; AEEA = NCCOCCOCC(=O)O; Aib = CC(C)(N)C(=O)O

Legend:
Sprague Dawley rats = assay: Effect on systolic blood pressure, telemetry in Sprague Dawley rats; type: in vivo, rat; conditions: 0.1 mg/kg SC
Procedure, shortened: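 Sprague Dawley rats with abdominal-aorta telemetry catheters, recovered ≥10 days, received 0.1 mg/kg SC of compound or vehicle. Systolic pressure recorded 1 h pre-dose as baseline, then continuously up to 48 hours, expressed as % change from baseline; duration of action is last time point with a BP effect (n=2).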

[1] = Pharmacokinetics in male Sprague Dawley rats after subcutaneous administration; type: in vivo; conditions: plasma, rat, SC, 0.05 mg/kg
[2] = Chemical stability in buffer (pH 7.4 / pH 4.5), % purity loss; type: physicochemical; conditions: 100 mM phosphate buffer pH 7.4; 40° C. vs 5° C.; 14 or 28 days
Procedure, shortened: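 Compounds dissolved at 10 mg/mL target in 100 mM phosphate (pH 7.4) or 100 mM acetate (pH 4.5) buffer for 1 h at room temperature, then centrifuged. Diluted supernatant stored at 5 °C or 40 °C for 14 or 28 days; % purity loss by LC-UV.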

[3] = In vitro subcutaneous tissue supernatant (SCts) stability and metabolite identification, rat; type: in vitro ADME; design: remaining at 2 h: dose or concentration left out as unconfirmed; conditions: male, Sprague Dawley; rat subcutaneous tissue supernatant (SCts), 37° C, 2 h
rat CRF2 a = biological target: T1, rat CRF2 a (Rattus norvegicus, UniProt P47866); assay: Activity at rat CRF2 a, cAMP assay in A7R5 rat aortic smooth muscle cells; type: cell-based; conditions: 0% HSA, 100% = Sauvagine at 100 nM
T1 construct: host or cells: A7R5 rat aortic smooth muscle cells
T1 sequence (P47866 27-431 isoform P47866-2 limits assumed): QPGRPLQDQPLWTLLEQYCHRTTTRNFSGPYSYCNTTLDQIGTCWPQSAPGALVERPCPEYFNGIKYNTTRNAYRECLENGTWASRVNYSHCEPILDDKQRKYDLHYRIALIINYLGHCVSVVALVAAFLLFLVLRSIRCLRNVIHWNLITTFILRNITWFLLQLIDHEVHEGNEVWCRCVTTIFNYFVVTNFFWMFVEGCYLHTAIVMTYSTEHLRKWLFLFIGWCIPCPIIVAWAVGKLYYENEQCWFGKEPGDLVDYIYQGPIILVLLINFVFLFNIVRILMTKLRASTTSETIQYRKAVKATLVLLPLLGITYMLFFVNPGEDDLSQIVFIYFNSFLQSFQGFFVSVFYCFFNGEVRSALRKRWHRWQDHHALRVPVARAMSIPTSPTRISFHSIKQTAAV
Method: The A7R5 rat aortic smooth muscle cell line used in this study was purchased from ATCC.
Cells were grown in a 10 cm dish at 37° C./5% CO2 in medium (DMEM/10% FBS) to near confluence. At that stage, cells were harvested, resuspended to 10 million/mL in culture medium and with 5% DMSO. 1 mL vial aliquots were slowly frozen to −80° C. in isopropanol and then transferred in liquid nitrogen for storage.
These vials were used to run the experiment following the procedure reported in the previous paragraph, except for the compound used in the control well to define the 100% activation (Sauvagine at 100 nM) and the cell density (final cell density: 5000 cells/well).

CFR1R receptor = biological target: T2, CFR1R receptor (Homo sapiens, UniProt P34998); assay: Activity at anti-target CFR1R receptor, cAMP assay in CRF1R-overexpression CHO-K1 cells; type: cell-based; conditions: 100% = Sauvagine at 100 nM; for EC50: cAMP
T2 construct: host or cells: CHO-K1 (clone 2)
T2 sequence (P34998 24-415): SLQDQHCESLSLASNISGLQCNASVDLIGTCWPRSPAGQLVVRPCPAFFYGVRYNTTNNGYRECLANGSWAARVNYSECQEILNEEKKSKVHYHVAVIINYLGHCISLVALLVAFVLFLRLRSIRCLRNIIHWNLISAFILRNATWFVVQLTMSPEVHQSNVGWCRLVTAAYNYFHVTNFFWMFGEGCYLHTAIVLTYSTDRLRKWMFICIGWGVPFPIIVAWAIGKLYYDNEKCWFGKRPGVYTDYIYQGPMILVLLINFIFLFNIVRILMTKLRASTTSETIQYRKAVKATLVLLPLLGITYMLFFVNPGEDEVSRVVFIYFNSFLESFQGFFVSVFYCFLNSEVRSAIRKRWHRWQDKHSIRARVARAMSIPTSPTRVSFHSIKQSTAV
Procedure, shortened: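 cAMP readout in CRF1R-overexpressing CHO-K1 cells (clone 2), run as for the TeloHAEC assay at 4000 cells/well final. Cells came from cryopreserved banks. Sauvagine at 100 nM defined 100% activation.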

human CRF2a receptor = biological target: T3, human CRF2a receptor (Homo sapiens, UniProt Q13324); assay: Activity at human CRF2a receptor, cAMP functional assay in TeloHEAC cells; type: cell-based; conditions: TeloHEAC cells stably expressing human CRF2a receptor, relative to urocortin 2 (100 nM = 100%)
T3 construct: expressed in transfected cells; host or cells: TeloHEAC cells
T3 sequence (Q13324 1-411): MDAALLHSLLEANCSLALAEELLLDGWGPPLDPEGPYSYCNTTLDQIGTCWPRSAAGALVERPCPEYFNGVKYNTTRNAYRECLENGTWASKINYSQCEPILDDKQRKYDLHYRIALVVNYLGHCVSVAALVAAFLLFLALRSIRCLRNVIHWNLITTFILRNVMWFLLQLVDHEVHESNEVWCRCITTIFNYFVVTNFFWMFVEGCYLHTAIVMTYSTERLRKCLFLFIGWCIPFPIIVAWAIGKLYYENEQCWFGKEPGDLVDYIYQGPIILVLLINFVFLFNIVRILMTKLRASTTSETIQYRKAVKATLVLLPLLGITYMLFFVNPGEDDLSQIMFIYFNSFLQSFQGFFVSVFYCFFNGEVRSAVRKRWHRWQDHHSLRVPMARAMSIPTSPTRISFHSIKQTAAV
Procedure, shortened: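 cAMP accumulation was measured by HTRF 665/620 nm ratio after 30 min at 37° C compound exposure (16 twofold dilutions) of CRF2a-expressing TeloHEAC cells, 10000/well, in HEPES-buffered HBSS plus IBMX. Activity was normalised to urocortin 2 at 100 nM (100%), and EC50 was the concentration giving half-maximal activation.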

| AUC(0-t) [1] | Cmax [1] | Tmax [1] | half-life [1] | Buffer stability pH 7.4 % purity loss [2] | remaining at 2 h [3] | EC50 (rat CRF2 a) | Emax (% I) (CFR1R receptor) | EC50 (CFR1R receptor) | EC50 (human CRF2a receptor) | SMILES | Systolic blood pressure (Mean) % change from baseline, 8 h (Sprague Dawley rats; 8 h, n=2) | Systolic blood pressure (Mean) % change from baseline, 12 h (Sprague Dawley rats; 12 h, n=2) | Systolic blood pressure (Mean) % change from baseline, 24 h (Sprague Dawley rats; 24 h, n=2) | Duration of action (Sprague Dawley rats; last time point with an effect on BP still observed) |
| --- | --- | --- | --- | --- | --- | --- | --- | --- | --- | --- | --- | --- | --- | --- |
| 1710 ng·h/mL | 105 ng/mL | 6 h | 12.6 h | 0.0/Not Tested % | 74% | 60 pM |  |  |  | CC[C@H](C)[C@H](NC)C(=O)N[C@H](C(=O)N[C@@H](CC(C)C)C(=O)N[C@@H](CO)C(=O)N[C@@H](CC(C)C)C(=O)N[C@@H](CC(=O)O)C(=O)N[C@@H](C(=O)N1CCC[C@H]1C(=O)N[C@H](C(=O)N[C@@H](CCCCN)C(=O)N[C@@H](CC(C)C)C(=O)N[C@@H](CCCCNC(=O)CC[C@H](NC(=O)CCCCCCCCCCCCCCCCC(=O)O)C(=O)O)C(=O)N[C@@H](CCCCN)C(=O)N[C@H](C(=O)N[C@@H](CC(C)C)C(=O)N[C@@H](CC(C)C)C(=O)N[C@@H](CCC(=O)O)C(=O)N[C@@H](CCC(N)=O)C(=O)N[C@@H](CCC(=O)O)C(=O)N[C@@H](CCCCN)C(=O)N[C@@H](CCC(N)=O)C(=O)N[C@@H](CCCCN)C(=O)N[C@@H](C)C(=O)N[C@@H](CCC(N)=O)C(=O)N[C@@H](CCCNC(=N)N)C(=O)N[C@@H](CCC(=O)O)C(=O)N[C@@H](CCC(N)=O)C(=O)N[C@@H](C)C(=O)N[C@@H](CCC(=O)O)C(=O)N[C@H](C(=O)N[C@@H](CC(N)=O)C(=O)NC(C)(C)C(=O)N[C@@H](CCC(N)=O)C(=O)N[C@H](C(=O)N[C@@H](CC(C)C)C(=O)N[C@@H](C)C(=O)N[C@@H](CCC(N)=O)C(=O)N[C@H](C(N)=O)C(C)C)[C@@H](C)CC)[C@@H](C)O)[C@@H](C)CC)[C@@H](C)CC)C(C)C)C(C)C [compound 144] (H-[NMeI]VLSLD[dV]PIKLK([γGlu-C18 diacid])KILLEQEKQKAQREQAETN[Aib]QILAQV-NH2) | −22% | −17% | 1% | 23 h |
|  |  |  |  |  |  | 400 pM | 13 % I | > 250000 pM | 120 pM | CC[C@H](C)[C@H](NC(C)=O)C(=O)N[C@H](C(=O)N[C@@H](CC(C)C)C(=O)N[C@@H](CO)C(=O)N[C@@H](CC(C)C)C(=O)N[C@@H](CC(=O)O)C(=O)N[C@@H](C(=O)N1CCC[C@H]1C(=O)N[C@H](C(=O)N[C@@H](CCCCN)C(=O)N[C@@H](CC(C)C)C(=O)N[C@@H](CCCCNC(=O)COCCOCCNC(=O)CC[C@H](NC(=O)CCCCCCCCCCCCCCCCCCC(=O)O)C(=O)O)C(=O)N[C@@H](CCCCN)C(=O)N[C@H](C(=O)N[C@@H](CC(C)C)C(=O)N[C@@H](CC(C)C)C(=O)N[C@@H](CCC(=O)O)C(=O)N[C@@H](CCC(N)=O)C(=O)N[C@@H](CCC(=O)O)C(=O)N[C@@H](CCCCN)C(=O)N[C@@H](CCC(N)=O)C(=O)N[C@@H](CCCCN)C(=O)N[C@@H](C)C(=O)N[C@@H](CCC(N)=O)C(=O)N[C@@H](CCCNC(=N)N)C(=O)N[C@@H](CCC(=O)O)C(=O)N[C@@H](CCC(N)=O)C(=O)N[C@@H](C)C(=O)N[C@@H](CCC(=O)O)C(=O)N[C@H](C(=O)N[C@@H](CC(N)=O)C(=O)NC(C)(C)C(=O)N[C@@H](CCC(N)=O)C(=O)N[C@H](C(=O)N[C@@H](CC(C)C)C(=O)N[C@@H](C)C(=O)N[C@@H](CCC(N)=O)C(=O)N[C@H](C(N)=O)C(C)C)[C@@H](C)CC)[C@@H](C)O)[C@@H](C)CC)[C@@H](C)CC)C(C)C)C(C)C [compound 232] (Ac-IVLSLD[dV]PIKLK([AEEA-γGlu-C20 diacid])KILLEQEKQKAQREQAETN[Aib]QILAQV-NH2) |  |  |  |  |
|  |  |  |  |  |  | 90 pM | 12 % I | > 250000 pM | 110 pM | CC[C@H](C)[C@H](NC(C)=O)C(=O)N[C@H](C(=O)N[C@@H](CC(C)C)C(=O)N[C@@H](CO)C(=O)N[C@@H](CC(C)C)C(=O)N[C@@H](CC(=O)O)C(=O)N[C@@H](C(=O)N1CCC[C@H]1C(=O)N[C@H](C(=O)N[C@@H](CCCCN)C(=O)N[C@@H](CC(C)C)C(=O)N[C@@H](CCCCNC(=O)COCCOCCNC(=O)COCCOCCNC(=O)CC[C@H](NC(=O)CCCCCCCCCCCCCCCCCCC(=O)O)C(=O)O)C(=O)N[C@@H](CCCCN)C(=O)N[C@H](C(=O)N[C@@H](CC(C)C)C(=O)N[C@@H](CC(C)C)C(=O)N[C@@H](CCC(=O)O)C(=O)N[C@@H](CCC(N)=O)C(=O)N[C@@H](CCC(=O)O)C(=O)N[C@@H](CCCCN)C(=O)N[C@@H](CCC(N)=O)C(=O)N[C@@H](CCCCN)C(=O)N[C@@H](CCCCN)C(=O)N[C@@H](CCC(N)=O)C(=O)N[C@@H](CCCNC(=N)N)C(=O)N[C@@H](CCC(=O)O)C(=O)N[C@@H](CCC(N)=O)C(=O)N[C@@H](C)C(=O)N[C@@H](CCC(=O)O)C(=O)N[C@H](C(=O)N[C@@H](CC(N)=O)C(=O)NC(C)(C)C(=O)N[C@@H](CCC(N)=O)C(=O)N[C@H](C(=O)N[C@@H](CC(C)C)C(=O)N[C@@H](C)C(=O)N[C@@H](CCC(N)=O)C(=O)N[C@H](C(N)=O)C(C)C)[C@@H](C)CC)[C@@H](C)O)[C@@H](C)CC)[C@@H](C)CC)C(C)C)C(C)C [compound 238] (Ac-IVLSLD[dV]PIKLK([AEEA-AEEA-γGlu-C20 diacid])KILLEQEKQKKQREQAETN[Aib]QILAQV-NH2) |  |  |  |  |
|  |  |  |  |  |  | 90 pM | 8 % I | > 250000 pM | 130 pM | CC[C@H](C)[C@H](NC(C)=O)C(=O)N[C@H](C(=O)N[C@@H](CC(C)C)C(=O)N[C@@H](CO)C(=O)N[C@@H](CC(C)C)C(=O)N[C@@H](CC(=O)O)C(=O)N[C@@H](C(=O)N1CCC[C@H]1C(=O)N[C@H](C(=O)N[C@@H](CCCCN)C(=O)N[C@@H](CC(C)C)C(=O)N[C@@H](CCCCNC(=O)CC[C@H](NC(=O)CC[C@H](NC(=O)CCCCCCCCCCCCCCCCCCC(=O)O)C(=O)O)C(=O)O)C(=O)N[C@@H](CCCCN)C(=O)N[C@H](C(=O)N[C@@H](CC(C)C)C(=O)N[C@@H](CC(C)C)C(=O)N[C@@H](CCC(=O)O)C(=O)N[C@@H](CCC(N)=O)C(=O)N[C@@H](CCC(=O)O)C(=O)N[C@@H](CCCCN)C(=O)N[C@@H](CCC(N)=O)C(=O)N[C@@H](CCCCN)C(=O)N[C@@H](CCCCN)C(=O)N[C@@H](CCC(N)=O)C(=O)N[C@@H](CCCNC(=N)N)C(=O)N[C@@H](CCC(=O)O)C(=O)N[C@@H](CCC(N)=O)C(=O)N[C@@H](C)C(=O)N[C@@H](CCC(=O)O)C(=O)N[C@H](C(=O)N[C@@H](CC(N)=O)C(=O)NC(C)(C)C(=O)N[C@@H](CCC(N)=O)C(=O)N[C@H](C(=O)N[C@@H](CC(C)C)C(=O)N[C@@H](C)C(=O)N[C@@H](CCC(N)=O)C(=O)N[C@H](C(N)=O)C(C)C)[C@@H](C)CC)[C@@H](C)O)[C@@H](C)CC)[C@@H](C)CC)C(C)C)C(C)C [compound 243] (Ac-IVLSLD[dV]PIKLK([γGlu-γGlu-C20 diacid])KILLEQEKQKKQREQAETN[Aib]QILAQV-NH2) |  |  |  |  |
